Here are results for three compounds from patent publication US11596620B2, “Formulations with reduced oxidation” (Genentech, Inc., priority 2013, dated 2023).

Data set [1] is described as follows: Cyclic voltammetry (CV) screening assay, oxidation potential. Type of data set: physicochemical. How it is done:
The oxidation/reduction characteristics of the compounds were investigated. Several compounds, including L-Trp and derivatives, were evaluated for the protection of Trp oxidation in proteins using cyclic voltammetry (CV) and rank ordered based on their oxidation potentials (Table 2). Specifically, the candidate antioxidants were dissolved in deionized water and then added to a 0.2 M lithium perchlorate electrolyte solution. […] Solutions were scanned from −0.10 V to +1.50 V at a scan rate of either 100 or 500 mV/sec. The analytical cell was purged for four minutes with nitrogen before scanning of each antioxidant solution. The input was a linear scan of the potential of a working electrode, and the output was measurement of the resulting current. […] Redox reactions were characterized by sharp increases or decreases in current (peaks). The potential at which an oxidation reaction occurred was referred to as the anodic peak potential (or oxidation potential), and the potential at which a reduction occurred was referred to as is the cathodic peak (or reduction) potential.

Data set [2] relates to mAb1. The data set can be described thus: mAb1 light stress study (16 hours at 250 W/m^2), RP-HPLC. Type of data set: physicochemical, human. As to conditions: 16 hours of light at 250 W/m^2; for Fab oxidation increase over the control level (mAb1 Ref Mat): excipient 1 mM or none. How it is done: (§1) The fragments were reduced with DTT, and then separated and identified via Liquid Chromatography-Mass Spectrometry (LC-MS). […] Comparison of area integrated under the oxidized and native peaks was used to quantify HC Fab and Fc oxidation. […] By using the papain digest RP-HPLC method in the present study it was possible to investigate Trp residue oxidation by quantifying HC Fab oxidation, and Met residue oxidation by quantifying HC Fc oxidation.
Antioxidants were added at 1 mM. Glass vials containing these formulations were exposed to 250 W/m^2 light in an Atlas SunTest CPS+ Xenon Test Instrument (Chicago, Ill.). Control vials were wrapped in aluminum foil and treated similarly. After light exposure, solutions were prepared for analysis by reverse-phase HPLC as described above.

The nature of data set [3]: Photosensitivity screening assay (H2O2 by Amplex Ultra Red after light exposure). It is filed as physicochemical. The protocol:
As a screening tool, antioxidant candidates were exposed to light for four hours at 250 W/m^2 and the resulting H2O2 formation was quantified by the Amplexassay. Specifically, antioxidants were prepared to 1 mM in 20 mM histidine acetate buffer at pH 5.5. The 1 mM antioxidant solutions were aliquoted into glass vials (2 mL/glass vial) and exposed to four hours of light at 250 W/m^2 in an Atlas SunTest CPS+ Xenon Test Instrument (Chicago, Ill.). Total UV dose was 90 watt-hours/square meter and total visible dose was 0.22 million lux hours over the 4-hour period. Control vials were wrapped in aluminum foil and treated similarly. The amount of hydrogen peroxide generated after exposure to light was measured using the Amplex® Ultra Red Assay (Invitrogen, Carlsbad, Calif.) following the manufacturer's recommended procedure. On addition of horseradish peroxidase (HRP), the dye reacted 1:1 stoichiometrically with H2O2, resulting in the production of fluorescent oxidation product resorufin. In this study, fluorescence readings were obtained using a Spectra Max M2 Micro-plate Reader (Molecular Devices, Sunnyvale, Calif.) with excitation and emission set at 560 nm and 590 nm, respectively. Final H2O2 concentrations were determined using a standard curve ranging from 0 μm to 20 μm.

Data set [4] deals with mAb1. The data set can be described thus: mAb1 AAPH stress study, RP-HPLC. It is filed as physicochemical, human. How it is done:
as §1
Antioxidants were added at 1 mM. […] After buffer exchange, each solution was prepared for analysis by reverse-phase HPLC as described above.

For data set [5], the system named is mAb1. As to the kind of experiment: mAb1 Fenton stress study (H2O2 + Fe), RP-HPLC. It is filed as physicochemical, human. As to conditions: 10 ppm H2O2 and 0.2 mM Fe(III), 40° C. for 3 hours; no excipient. The protocol: Antioxidants were added at a final concentration of 1 mM. […] After incubation, each reaction was quenched by addition of 100 mM L-Met and then prepared for analysis by reverse-phase HPLC as described above.
The Fenton reaction, using a mixture of H2O2 and Fe ions, generates oxidation through a metal catalyzed, hydroxyl radical reaction (Prousek et al., Pure and Applied Chemistry 79(12):2325-2338 (2007)). This reaction generated Fab, i.e. tryptophan, oxidation in mAb1. The reaction was also carried out in the presence of select antioxidants that were useful against both AAPH and light induced oxidation as reported above. Data related to the antioxidant properties against Fenton mediated reaction were analyzed using the RP-HPLC assay as described above. The Fenton reaction used 10 ppm of H2O2 and 0.2 mM of Fe(III). The reaction was incubated at 40° C. for 3 hours, quenched with 100 mM L-Met and analyzed using RP-HPLC after papain digest. All samples were the average of three separate vials, and mAb1 control (Ref Mat) was one vial with five independent injections on the HPLC. […] In regards to protection against Fc oxidation, the tested excipients (other than salicylic acid) performed slightly better than L-Trp.

The subject of data set [6] is mAb1. As to the kind of experiment: Light stress of mAb1 formulation (eight hours at 250 W/m^2), papain digest RP-HPLC. It is filed as physicochemical, human. As to conditions: eight hours of light at 250 W/m^2. The protocol:
L-tryptophan (L-Trp), an antioxidant used in protein formulations, has been recently shown to be photosensitive (Igarashi et al., Anal Sci 23(8):943-8 (2007)) and to have the ability to produce H2O2 upon light exposure. […] Control vials were wrapped in aluminum foil and treated similarly. After light exposure, solutions were prepared for analysis by reverse-phase HPLC. […] Following incubation, 900 μL of the solution was combined with 100 μL of 1 M dithiothreitol (DTT) and incubated for another thirty minutes at 37° C. Samples were then run on an Agilent, Inc. 1100/1200 HPLC system (Santa Clara, Calif.) equipped with UV detection at 280 nm in conjunction with a Varian, Inc. Pursuit 3 μm, 2 mm ID×250 mm diphenyl column (Palo Alto, Calif.). Mobile Phase A was 0.1% TFA in water. Mobile Phase B was 0.1% TFA in acetonitrile. The mobile phase gradient increased linearly from 34% B at 0 minutes to 43% B at 50.0 minutes, then to 95% B at 50.1 minutes. The gradient remained at 95% B until 60.1 minutes, and then decreased linearly from 95% B to 34% B between 60.1 and 60.2 minutes. The gradient remained at 34% B until the end of the cycle at 80.2 minutes. The column temperature was 65° C., total flow rate was 0.2 mL/min, and injection volume of each sample was 6 μL. Chromatograms were then integrated for quantification of oxidation.

[7] abbreviates: anodic peak potential, glassy carbon working electrode, 0.2M lithium perchlorate.
Where [8] appears, read: 1 mM in 20 mM histidine acetate pH 5.5, four hours of light at 250 W/m^2.

Take `O=C(O)c1ccccc1O` [Salicylic Acid]: the “Oxidation Potential” value in data set [1] (setting [7]) worked out at 1.080 V vs Ag/AgCl; in data set [1] (cyclic voltammetry, 0.2 M lithium perchlorate), 1.080 V vs Ag/AgCl. In addition, the “Oxidation potential relative to L-Trp, in words” value in data set [1] (cyclic voltammetry) is reported as “higher oxidation potential than L-Trp”. Besides, in the data set with mAb1 [2], the “Fab oxidation increase over the control level (mAb1 Ref Mat)” value amounted to 8 fold. The “Light-induced Fc oxidation, effect in words” value in the data set on mAb1 [2] (excipient 1 mM, compared to no excipient) is reported as “more Fc oxidation”. The “(H2O2 produced by Compound)/(H2O2 produced by L-Trp)” value in data set [3] (pH 5.5) is 0.03. The “H2O2 produced compared to L-Trp, in words” value in data set [3] (pH 5.5) is given as “very little H2O2”. For the same compound, in the data set on mAb1 [4] (excipient 1 mM, AAPH 24 hours at 40° C.), the “AAPH-induced Fab oxidation, effect in words” value is “almost no effect”.
Regarding `NCCc1c[nH]c2ccc(O)cc12` [Serotonin (5-Hydroxytryptamine), 5-Hydroxytryptamine], the “Oxidation Potential” value in data set [1] (setting [7]) turned out to be 0.600 V vs Ag/AgCl. Moreover, the “Light-induced Fab oxidation, effect in words” value in the data set on mAb1 [2] (excipient 1 mM) was “near control levels”. Moreover, in data set [3] (setting [8]), the “(H2O2 produced by Compound)/(H2O2 produced by L-Trp)” value stood at 0.03 and the “H2O2 produced compared to L-Trp, in words” value is on record as “very little H2O2”. The “Fab (Trp residue) oxidation” value in the data set with mAb1 [4] (mAb1 with AAPH for 24 hours at 40° C., antioxidants at 1 mM or none) is given as “about 2%”.
Consider drozitumab [mAb1], for which the “Oxidation in the Fab region over the control” value in the data set with mAb1 [5] is given as “about four times”. For the same compound, in the data set with mAb1 [2], the “Fab oxidation increase over the control level (mAb1 Ref Mat)” value came out at 3.5 fold. Besides, in the data set on mAb1 [2] (no excipient), the “Increase in Fc oxidation over the control level” value came out at 40%. Moreover, the “Fc oxidation, effect in words” value in the data set on mAb1 [6] (no excipient, or 10, 25, 50 and 100 mM L-Met added to 1 mM L-Trp) is listed as “only a minor increase in Fc oxidation”. For the same compound, in the data set on mAb1 [6] (mAb1 5 mg/mL, no excipient or 1 mM L-Trp, reference material and foil control about 2%), the Fab oxidation amounted to 4%.
